Results as given in patent US9505735B2, “Compounds for treating infectious diseases” (Whitehead Institute for Biomedical Research, priority 2012, dated 2016).

Legend:
[1] = molecular target: T1, Gwt1 (Saccharomyces cerevisiae, UniProt P47026); assay: Antifungal susceptibility testing, screening strains with plasmid-borne GWT1 (low or high copy); assay type: cell-based, S. cerevisiae
T1 construct: Wildtype S. cerevisiae BY4741; endogenous in cells; host or cells: S. cerevisiae BY4741 (wild type)
T1 sequence (P47026 1-490): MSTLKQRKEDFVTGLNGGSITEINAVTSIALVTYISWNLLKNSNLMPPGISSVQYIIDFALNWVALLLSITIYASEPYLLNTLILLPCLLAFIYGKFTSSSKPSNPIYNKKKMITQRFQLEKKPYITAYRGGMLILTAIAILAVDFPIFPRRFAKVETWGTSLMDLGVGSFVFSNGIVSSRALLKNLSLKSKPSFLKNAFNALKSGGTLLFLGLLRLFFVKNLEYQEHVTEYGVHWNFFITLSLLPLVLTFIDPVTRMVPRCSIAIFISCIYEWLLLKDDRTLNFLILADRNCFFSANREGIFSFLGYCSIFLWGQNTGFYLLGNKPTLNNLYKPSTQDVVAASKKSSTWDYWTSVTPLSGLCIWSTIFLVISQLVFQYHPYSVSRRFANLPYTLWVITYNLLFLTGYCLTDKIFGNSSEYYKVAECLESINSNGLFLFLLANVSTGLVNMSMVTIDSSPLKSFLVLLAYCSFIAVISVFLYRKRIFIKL
Method: (§1) Sensitivity to gepinacin was determined in 96-well, flat bottom microtiter plates using a modification of the NCCLS broth microdilution protocol CLS M27-A3 and RPMI as culture medium. Fungi were inoculated at ˜10^3 cells per ml and incubated for 48 hours at 37° C. after which plates were sealed, shaken and the optical density read at 600 nm (OD600) on a Tecan Safire 2 plate reader. All samples were run in duplicate or triplicate and assays were repeated at least once. Results are expressed as fraction of growth in the absence of compound and the mean and standard deviation are plotted. For the mold A. terreus, inoculum was 10^4 cells per ml and plates were incubated at 35° C. for 48 hours in the dark. Plates were then visually scored as specified by CLSI document M38-A2 to determine the MIC50 and MIC80.
Because GWT1 deletion is lethal in S. cerevisiae strain BY4741, a haploid shuttle strain was constructed in which the genomic copy of GWT1 was deleted and replaced by GWT1 on a plasmid that also encoded the URA3 gene and a G418-resistance gene. To construct this shuttle strain a gwt1Δ/GWT1 heterozygous deletion mutant was transformed with pAGGPD416-GWT1, sporulated and dissected. A colony was selected that grew on both SD-URA and G418-containing plates. PCR with the deletion specific primers (http://wwwsequence.stanford.edu/group/yeast_deletion_project/deletions3.html) was performed to confirm the GWT1 deletion. To change the source of GWT, this shuttle strain was transformed with plasmids containing GWT1 (as a control) or PIG-W and the LEU2 auxotrophy gene followed by selection for growth on SD-LEU plates. Plasmids were constructed by conventional Gateway technology using a GWT1 encoding entry vector and either pAG415GPDccdB or pAG425GPDccdB as the destination vectors. Positive colonies were selected and grown on 5-fluoroorotic acid (5-FOA)-containing plates to promote loss of the pAGGPD416-GWT1 plasmid. The colonies from this plate were then tested for return of uridine auxotrophy to confirm pAGGPD416-GWT1 loss. The PIG-W expression vector was constructed by recombination in yeast as follows. The pAG415GPDccdB vector was cut with Xho1 and Xba1 and the larger piece was gel and column purified. The coding sequence of PIG-W was PCR amplified from the entry clone so that it would have ends facilitating recombination with the cut vector. The shuttle strain was then transformed with these two DNA fragments and plated on SD-LEU plates to select for recombinants. PIG-W plasmid was isolated from the final strain and sequence verified.
The following gepinacin analogs were tested for activity against Gwt1. Gepinacin, M3, CM2, CM4, CM6, CM7, CM8, and 857621-56-8 were available commercially. The compounds were tested using the “Antifungal Susceptibility Testing” protocol described above. Fungi tested are described in the “Fungal Strains” section above.
An S. cerevesiae strain was generated in which the endogenous Gwt1 gene was deleted. Plasmids (either high copy or low copy) with either S. cerevesiae or human Gwt1 were introduced to produce strains bearing such plasmids expressing either S. cerevesiae or human Gwt1 from a constitutive promoter. Yeast strains were cultured in liquid media in the presence of indicated compounds. Shown in FIGS. 22A-D show the effect of the indicated compounds on growth (assessed by OD600) and viability (assessed using Bactiter Glo) of the yeast strain with high copy or low copy plasmid containing S. cerevesiae Gwt1. The compounds had no effect on strains with the human Gwt1, thus showing the compounds' sensitivity for the fungal (yeast) Gwt1 gene.

[2] = molecular target: T2, PIG-W (Homo sapiens, UniProt Q7Z7B1); assay: Growth of S. cerevisiae strain whose GWT1 is replaced by the human gene PIG-W; assay type: cell-based
T2 construct: expressed in transfected cells; host or cells: S. cerevisiae BY4741-derived gwt1 deletion shuttle strain carrying a pAG415GPD-based PIG-W plasmid
T2 sequence (Q7Z7B1 1-504): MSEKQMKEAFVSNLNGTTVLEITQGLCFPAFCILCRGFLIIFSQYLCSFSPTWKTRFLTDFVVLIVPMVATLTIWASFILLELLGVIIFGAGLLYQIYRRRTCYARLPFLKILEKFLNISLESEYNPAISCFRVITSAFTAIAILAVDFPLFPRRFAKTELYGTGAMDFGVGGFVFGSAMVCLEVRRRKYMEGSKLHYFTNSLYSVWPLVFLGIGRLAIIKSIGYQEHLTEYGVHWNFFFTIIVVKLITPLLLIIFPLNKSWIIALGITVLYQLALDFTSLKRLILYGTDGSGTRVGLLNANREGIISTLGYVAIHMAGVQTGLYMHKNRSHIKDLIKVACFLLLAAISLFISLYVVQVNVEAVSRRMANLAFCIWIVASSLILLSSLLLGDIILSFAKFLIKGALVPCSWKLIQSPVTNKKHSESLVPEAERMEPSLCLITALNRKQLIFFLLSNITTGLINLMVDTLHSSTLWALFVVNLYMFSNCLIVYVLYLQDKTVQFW
Method: as §1
Because GWT1 deletion is lethal in S. cerevisiae strain BY4741, a haploid shuttle strain was constructed in which the genomic copy of GWT1 was deleted and replaced by GWT1 on a plasmid that also encoded the URA3 gene and a G418-resistance gene. […]
An S. cerevesiae strain was generated in which the endogenous Gwt1 gene was deleted. […] Shown in FIGS. 22A-D show the effect of the indicated compounds on growth (assessed by OD600) and viability (assessed using Bactiter Glo) of the yeast strain with high copy or low copy plasmid containing S. cerevesiae Gwt1. […]

## COc1ccc(NC(=O)COc2cccc(OCC(C)C)c2)cc1 [gepinacin]
[1]
  cell growth of the strain expressing the yeast gene (GWT1): potently inhibited
[2]
  activity against PigW / in the PIG-W expressing strain: inactive
